The results in this text go back to ChEMBL document CHEMBL4616649, “Genomics-Metabolomics Profiling Disclosed Marine Vibrio spartinae 3.6 as a Producer of a New Branched Side Chain Prodigiosin” (2020).

Assay type in all cases: functional
In assay [1] the test system is Stenotrophomonas maltophilia. Nature of the assay: Antibacterial activity against Stenotrophomonas maltophilia ATCC 13637 assessed as reduction in microbial growth after 20 hrs by microdilution method. Particulars: ATCC 13637, 20 h.
For assay [2], the system named is Staphylococcus epidermidis. The assay is described as follows: Antibacterial activity against Staphylococcus epidermidis ATCC 35984 assessed as reduction in microbial growth after 20 hrs by microdilution method. The settings on record: ATCC 35984, 20 h. (In broth dilution the organism is exposed to a series of concentrations in liquid medium.)
Assay [3] concerns Stenotrophomonas maltophilia. The assay is described as follows: Antibacterial activity against Stenotrophomonas maltophilia ATCC 700475 assessed as reduction in microbial growth after 20 hrs by microdilution method. The settings on record: ATCC 700475, 20 h.
Assay [4] has as its system Staphylococcus aureus. Nature of the assay: Antibacterial activity against Staphylococcus aureus ATCC 23235 assessed as reduction in microbial growth after 20 hrs by microdilution method. Particulars: ATCC 23235, 20 h.
The subject of assay [5] is Stenotrophomonas maltophilia. Nature of the assay: Antibacterial activity against Stenotrophomonas maltophilia ATCC 13636 assessed as reduction in microbial growth after 20 hrs by microdilution method. Particulars: ATCC 13636, 20 h.
The subject of the next assay is Listeria monocytogenes. The assay is described as follows: Antibacterial activity against Listeria monocytogenes MB677 assessed as reduction in microbial growth after 20 hrs by microdilution method. Particulars: MB677, 20 h.
For assay [6], the system named is Staphylococcus aureus. Nature of the assay: Antibacterial activity against Staphylococcus aureus 6538P assessed as reduction in microbial growth after 20 hrs by microdilution method.
Assay [7] concerns Staphylococcus aureus. Nature of the assay: Antibacterial activity against Staphylococcus aureus ATCC 29213 assessed as reduction in microbial growth after 20 hrs by microdilution method. Particulars: ATCC 29213, 20 h.

For orientation: MIC means the lowest concentration that inhibits growth of the organism. The MIC50 is an inhibitory concentration at the 50% level, which refers to growth in some studies and to a panel of isolates in others.

On to `COc1cc(-c2ccc[nH]2)[nH]c1/C=C1\N=C(C)C2=C1C(C)CCC2` (stereo not drawn), for which the MIC amounted to 3.3 µg/mL in assay [1]; 3.3 µg/mL in assay [2]; 5.3 µg/mL in assay [3]; 3.3 µg/mL in the assay with Staphylococcus aureus [4]; 3.3 µg/mL in assay [5]; 4 µg/mL with Listeria monocytogenes. Moreover, the values for the MIC in the assay on Staphylococcus aureus [6] and in the assay with Staphylococcus aureus [7] were 3.3 µg/mL and 4 µg/mL, respectively. Further, the MIC50 in assay [1] came out at 2 µg/mL; in assay [2], 0.5 µg/mL; in assay [3], 1.7 µg/mL; in the assay with Staphylococcus aureus [4] it was 0.08 µg/mL; in assay [5] it was 1 µg/mL; in the assay with Listeria monocytogenes it was 0.4 µg/mL. The MIC50 with Staphylococcus aureus [6] was 0.05 µg/mL; with Staphylococcus aureus [7] it was 0.06 µg/mL.
Turning to `CN[C@H](CC(C)C)C(=O)N[C@H]1C(=O)N[C@@H](CC(N)=O)C(=O)N[C@H]2C(=O)N[C@H]3C(=O)N[C@H](C(=O)N[C@H](C(=O)O)c4cc(O)cc(O)c4-c4cc3ccc4O)[C@H](O)c3ccc(c(Cl)c3)Oc3cc2cc(c3O[C@@H]2O[C@H](CO)[C@@H](O)[C@H](O)[C@H]2O[C@H]2C[C@](C)(N)[C@H](O)[C@H](C)O2)Oc2ccc(cc2Cl)[C@H]1O` [VANCOMYCIN], in the assay with Staphylococcus aureus [6], the MIC turned out to be 1.7 µg/mL.
In the case of `CC1(C)S[C@@H]2[C@H](NC(=O)[C@H](N)c3ccccc3)C(=O)N2[C@H]1C(=O)O` [AMPICILLIN], in the assay with Listeria monocytogenes, the minimum inhibitory concentration (MIC) is 0.8 µg/mL.
As to `O=C(N[C@H](CO)[C@H](O)c1ccc([N+](=O)[O-])cc1)C(Cl)Cl` [CHLORAMPHENICOL], the minimum inhibitory concentration (MIC) amounted to 3.3 µg/mL in assay [1], 4 µg/mL in assay [3] and 4 µg/mL in assay [5].
With `CCCCCC1=C/C(=C\c2[nH]c(-c3ccc[nH]3)cc2OC)N=C1C`, the MIC came out at 1.7 µg/mL in assay [1]; 2 µg/mL in assay [2]; 2.7 µg/mL in assay [3]; 1.3 µg/mL in the assay on Staphylococcus aureus [4]; 1.7 µg/mL in assay [5]; 1.7 µg/mL with Listeria monocytogenes. The MIC was 1.7 µg/mL with Staphylococcus aureus [6] and 3.3 µg/mL in the assay with Staphylococcus aureus [7]. Besides, the MIC50 in assay [1] turned out to be 0.66 µg/mL; in assay [2], 0.33 µg/mL; in assay [3], 0.5 µg/mL; in the assay with Staphylococcus aureus [4] it was 0.06 µg/mL; in assay [5] it was 0.13 µg/mL; in the assay with Listeria monocytogenes, 0.16 µg/mL. Further, the MIC50 with Staphylococcus aureus [6] was determined as 0.04 µg/mL; in the assay with Staphylococcus aureus [7] it was 0.05 µg/mL.
For the compound `COc1cc(-c2ccc[nH]2)[nH]c1/C=C1/C=C(CCCCC(C)C)C(C)=N1`, the MIC in assay [1] turned out to be 27 µg/mL; in assay [2], 27 µg/mL; in assay [3] it was 27 µg/mL; with Staphylococcus aureus [4], 21 µg/mL; in assay [5], 27 µg/mL; in the assay with Listeria monocytogenes, 21 µg/mL. Besides, the MIC was 21 µg/mL in the assay with Staphylococcus aureus [6] and 27 µg/mL in the assay on Staphylococcus aureus [7]. Moreover, the MIC50 in assay [1] amounted to 3.3 µg/mL; in assay [2], 2.7 µg/mL; in assay [3], 4 µg/mL; in the assay with Staphylococcus aureus [4], 0.5 µg/mL; in assay [5] it was 3.3 µg/mL; in the assay with Listeria monocytogenes, 3.3 µg/mL. Further, the results for the MIC50 in the assay on Staphylococcus aureus [6] and in the assay with Staphylococcus aureus [7] were 0.2 µg/mL and 0.5 µg/mL, respectively.
